Assay results taken from patent US4749710A, “Immunosuppressive agents” (priority 1985, dated 1988).
Where two headings read alike, the source gives them in different places.

How the values were obtained:
Type in all cases: cell-based
cultured murine cells = assay: Viability / viable cell recovery of cultured murine cells (trypan blue dye exclusion); details: immunosuppressive concentrations
Procedure: (§1) Murine cytotoxic T-lymphocytes were generated in mixed leukocyte cultures by known methods. Specifically, single cell suspensions were prepared from spleens by gentle disruption in balanced salt solution (Hanks' balanced salt solution supplemented to 10%, v/v, with fetal bovine serum). After sedimentation on ice to remove particulate debris, cell suspensions were centrifuged at 400xg and were resuspended in fresh balanced salt solution. Cells to be used as stimulator cells were precluded from proliferating or generating cytotoxic T-lymphocytes by exposure to 1000 rads of gamma irradiation using a ^137 cesium source. […] Unless otherwise indicated, mixed leukocyte cultures were incubated at 37° C. for 6 days in a humidified atmosphere of 5% CO2 in air. The murine cytotoxic T-lymphocyte assay was conducted as follows. […] Cell pellets were resuspended in tissue culture medium and viable cells were enumerated by microscopy after exposure to trypan blue. Percent viability was calculated according to the formula: [formula] During the mixed leukocyte culture phase of the murine tests, three each of medium control and vehicle control cultures were included; each being assayed separately for cell viability and CTL activity. Unless otherwise indicated, single cultures were used to test for the effect of a particular concentration of any Vitamin D derivative. Moreover, cell viability was generally assessed only from control cultures; the resultant mean values being used to prepare desired viable effector cell concentrations from all cultures. The results for control cultures are expressed as the mean from replicate mixed leukocyte cultures±standard deviation thus establishing the between-culture variability inherent to any particular experiment. That changes in CTL activity were compound-induced was evidenced by dose-dependent changes in CTL activity measured from single cultures which exceeded the variability of the test system. […] The data shown in Table II below address this point. […] | ^b The viability of cells from each culture was determined by trypan

[1] = as above; details: mouse, trypan blue exclusion
Procedure: as §1

[2] = system: murine cytotoxic T-lymphocyte responses; assay: cells; details: for CTL activity (% specific ^51 Cr release): 90:1 effector to target
Excerpt: Immunosuppressive Activity of Vitamin D compounds on cytotoxic T lymphocyte Responses-General Test Description
Cytotoxic thymus-derived lymphocytes (CTL) constitute an important aspect of immune function and, as a result, play a key role in the rejection of grafted cells, tissues and organs. It is, therefore, essential to suppress CTL generation in a clinical situation in which CTL function is antithetical to the desired outcome as, for example, in transplantation. Cytotoxic T-lymphocytes have been studied for several years by many investigators and methods to evaluate CTL responses in vitro are well established.
As described below, CTL responses as affected by Vitamin D derivatives, were studied in vitro using cells from lab animals and human volunteers. Cytotoxic T-lymphocytes were generated from responder lymphoid cells in tissue culture medium during an incubation period of 6 days by exposure to foreign stimulator cells, i.e. from a genetically disparate source. A portion of the resultant effector cells were CTL capable of killing fresh cells related to the stimulator cells employed in the 6 day culture. To detect killing of cells by CTL, fresh target cells were incubated in excess ^51 chromium (as sodium chromate) until they were extensively labelled. Since target cells will retain the internalized radioisotope as long as they are viable but release the label when they are killed, CTL activity was assessed by quantitating the chromium released from target cells after a 4 or 18 hour incubation with CTL. Immunosuppression produced by Vitamin D derivatives was gauged as the ability to inhibit CTL responses during the initial incubation period relative to control cultures to which no Vitamin D derivative was added.
Female BALB/c By and C57BL/6 mice were obtained from Jackson Laboratories and were used between 8 and 10 weeks of age. Mice were given food and water ad libitum and were kept in a 12 hour light and 12 hour dark cycle.
For murine cultures, minimal essential medium with Hank's salts was supplemented to 1 millimolar with sodium pyruvate, to 0.1 millimolar with nonessential amino acids, to 2 millimolar with 1-glutamine, to 10% (v/v) with heat-inactivated fetal bovine serum, to 50 micrograms per ml with gentamicin, and to 1000 milligrams per liter with sodium bicarbonate and was used as tissue culture medium.
Stock solutions of Vitamin D derivatives were made in argon-saturated ethanol at a final concentration of 1×10^-2 molar, were covered with argon before sealing and were stored at -20° C. in the dark. Reduced lighting conditions were always employed when working with compounds. Compounds were diluted in tissue culture medium to 1×10^-4 molar and all subsequent dilutions were done in tissue culture medium containing 1% v/v ethanol. The final dilution into culture vessels was 1:10 thus keeping the vehicle concentration constant at 0.1% while varying the concentration of compound as tabulated in the results. For purposes of control, mixed leukocyte cultures were incubated in medium only (medium control) or in medium containing a final concentration of 0.1% ethanol (vehicle control).
Murine cytotoxic T-lymphocytes were generated in mixed leukocyte cultures by known methods. Specifically, single cell suspensions were prepared from spleens by gentle disruption in balanced salt solution (Hanks' balanced salt solution supplemented to 10%, v/v, with fetal bovine serum). After sedimentation on ice to remove particulate debris, cell suspensions were centrifuged at 400xg and were resuspended in fresh balanced salt solution. Cells to be used as stimulator cells were precluded from proliferating or generating cytotoxic T-lymphocytes by exposure to 1000 rads of gamma irradiation using a ^137 cesium source. […]

C=C1/C(=C\C=C2/CCC[C@]3(C)[C@@H]([C@H](C)/C=C/[C@H](C)C(C)(C)O)CC[C@@H]23)C[C@@H](O)C[C@@H]1O [1α,25-(OH)2 --D2, 1α,25-Dihydroxyergocalciferol]
toxicity to cultured murine cells (in words) (cultured murine cells): not toxic to cultured murine cells
viability at 0.0001 µM [1]: 57%
viability at 0.001 µM [1]: 58%
viability at 0.01 µM [1]: 57%
viability at 0.1 µM [1]: 57%
viability at 1 µM [1]: 57%
suppression of murine cytotoxic T-lymphocyte responses (in words) [2]: suppress murine cytotoxic T-lymphocyte responses
inhibition at 10 µM ([2]; Mus musculus, T-lymphocyte, Table I, 1 × 10^-5 molar, vs vehicle control, read-out: Inhibition of CTL activity (%)): 91%
inhibition at 1 µM ([2]; Mus musculus, T-lymphocyte, Table I, 1 × 10^-6 molar, vs vehicle control, read-out: Inhibition of CTL activity (%)): 63%
inhibition at 0.1 µM ([2]; Mus musculus, T-lymphocyte, Table I, 1 × 10^-7 molar, vs vehicle control, read-out: Inhibition of CTL activity (%)): 48%
inhibition at 0.01 µM ([2]; Mus musculus, T-lymphocyte, Table I, 1 × 10^-8 molar, vs vehicle control, read-out: Inhibition of CTL activity (%)): 40%
inhibition at 0.001 µM ([2]; Mus musculus, T-lymphocyte, Table I, 1 × 10^-9 molar, vs vehicle control, read-out: Inhibition of CTL activity (%)): 20%
inhibition at 0.0001 µM ([2]; Mus musculus, T-lymphocyte, Table I, 1 × 10^-10 molar, vs vehicle control, read-out: Inhibition of CTL activity (%)): 3%
inhibition at 1 µM ([2]; Mus musculus, T-lymphocyte, Table II, 1 × 10^-6 molar, vs vehicle, read-out: Inhibition of CTL activity (%)): 56%
inhibition at 0.1 µM ([2]; Mus musculus, T-lymphocyte, Table II, 1 × 10^-7 molar, vs vehicle, read-out: Inhibition of CTL activity (%)): 56%
inhibition at 0.01 µM ([2]; Mus musculus, T-lymphocyte, Table II, 1 × 10^-8 molar, vs vehicle, read-out: Inhibition of CTL activity (%)): 37%
inhibition at 0.001 µM ([2]; Mus musculus, T-lymphocyte, Table II, 1 × 10^-9 molar, vs vehicle, read-out: Inhibition of CTL activity (%)): 20%
inhibition at 0.0001 µM ([2]; Mus musculus, T-lymphocyte, Table II, 1 × 10^-10 molar, vs vehicle, read-out: Inhibition of CTL activity (%)): 20%
CTL activity (% specific ^51 Cr release) ([2]; Table I, 1 × 10^-5 molar): 5 % specific ^51 Cr release
CTL activity (% specific ^51 Cr release) ([2]; Table I, 1 × 10^-6 molar): 20 % specific ^51 Cr release
CTL activity (% specific ^51 Cr release) ([2]; Table I, 1 × 10^-7 molar): 28 % specific ^51 Cr release
CTL activity (% specific ^51 Cr release) ([2]; Table I, 1 × 10^-8 molar): 32 % specific ^51 Cr release
CTL activity (% specific ^51 Cr release) ([2]; Table I, 1 × 10^-9 molar): 43 % specific ^51 Cr release
CTL activity (% specific ^51 Cr release) ([2]; Table I, 1 × 10^-10 molar): 52 % specific ^51 Cr release
CTL activity (% specific ^51 Cr release) ([2]; Table II, 1 × 10^-6 molar): 21 % specific ^51 Cr release
CTL activity (% specific ^51 Cr release) ([2]; Table II, 1 × 10^-7 molar): 21 % specific ^51 Cr release
CTL activity (% specific ^51 Cr release) ([2]; Table II, 1 × 10^-8 molar): 30 % specific ^51 Cr release
CTL activity (% specific ^51 Cr release) ([2]; Table II, 1 × 10^-9 molar): 38 % specific ^51 Cr release
CTL activity (% specific ^51 Cr release) ([2]; Table II, 1 × 10^-10 molar): 38 % specific ^51 Cr release
